Results taken from PMC12508063, “Chloroindazole based estrogen receptor β ligands with favorable pharmacokinetics promote functional remyelination and visual recovery” (Scientific Reports, 2025).
Values joined by “and” are separate entries in the source; they are usually repeats but may differ in a detail not shown here. Equal entries are not always repeated.

How the values were obtained:
[1] = molecular target: T1, ERβ (Homo sapiens, UniProt Q92731); experiment: ER reporter gene assay in HEK 293 T cells (ER-luciferase reporter); type: cell-based; conditions: for Reporter gene assay raw data, ERb: ERb data block (head r19), 4 replicate columns; for ERb reporter gene assay raw data (response): four replicate columns per compound
T1 construct: expressed in transfected cells; host or cells: HEK 293 T cells

[2] = molecular target: T2, ERα (Homo sapiens, UniProt P03372); experiment: as above; type: cell-based; conditions: for Reporter gene assay raw data, ERa: 4 replicate columns
T2 construct: expressed in transfected cells; host or cells: HEK 293 T cells
T2 sequence (P03372 1-595): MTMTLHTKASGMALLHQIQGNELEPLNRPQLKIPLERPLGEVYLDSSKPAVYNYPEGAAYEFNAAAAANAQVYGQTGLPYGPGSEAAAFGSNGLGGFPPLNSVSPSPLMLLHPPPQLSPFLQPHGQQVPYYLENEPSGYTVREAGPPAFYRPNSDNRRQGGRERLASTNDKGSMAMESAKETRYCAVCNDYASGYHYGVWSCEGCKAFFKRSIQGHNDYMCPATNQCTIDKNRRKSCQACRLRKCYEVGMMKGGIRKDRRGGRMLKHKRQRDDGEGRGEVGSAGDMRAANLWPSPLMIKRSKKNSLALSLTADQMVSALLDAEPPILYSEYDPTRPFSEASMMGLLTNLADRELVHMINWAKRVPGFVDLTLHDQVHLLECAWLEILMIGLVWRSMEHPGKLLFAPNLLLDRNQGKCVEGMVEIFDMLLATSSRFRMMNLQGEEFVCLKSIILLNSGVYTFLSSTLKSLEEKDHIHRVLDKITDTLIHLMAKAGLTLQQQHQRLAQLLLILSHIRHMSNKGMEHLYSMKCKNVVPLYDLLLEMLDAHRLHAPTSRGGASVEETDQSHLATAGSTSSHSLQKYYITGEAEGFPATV

T1 sequence (Q92731 whole entry, species assumed): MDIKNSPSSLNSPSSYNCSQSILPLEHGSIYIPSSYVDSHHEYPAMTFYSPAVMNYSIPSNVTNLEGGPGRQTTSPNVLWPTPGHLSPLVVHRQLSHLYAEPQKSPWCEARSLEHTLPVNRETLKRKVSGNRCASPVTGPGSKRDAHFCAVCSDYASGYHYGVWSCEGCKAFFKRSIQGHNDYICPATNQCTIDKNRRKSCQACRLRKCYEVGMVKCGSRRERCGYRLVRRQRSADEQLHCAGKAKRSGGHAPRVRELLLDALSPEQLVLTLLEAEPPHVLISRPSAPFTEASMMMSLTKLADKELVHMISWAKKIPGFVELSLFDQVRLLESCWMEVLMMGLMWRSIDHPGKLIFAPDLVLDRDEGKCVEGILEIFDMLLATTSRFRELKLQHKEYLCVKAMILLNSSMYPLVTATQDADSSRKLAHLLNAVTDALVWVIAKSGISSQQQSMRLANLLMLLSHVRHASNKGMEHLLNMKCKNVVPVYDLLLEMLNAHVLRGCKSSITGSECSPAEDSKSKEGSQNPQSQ

Reporter gene assay raw data, ERb ([1]; Log M -10.7721): 2.426 and 2.349 and 4.55 and 3.395 | ERb reporter gene assay raw data (response) ([1]; Log M -10.7721): 3.239 and 2.8663 and 1.689 and 3.053 | Reporter gene assay raw data, ERb ([1]; Log M -11.248): 1.344 and 1.212 and 1.016 and 0.8144 | ERb reporter gene assay raw data (response) ([1]; Log M -11.248): 2.211 and 0.8495 and 0.02026 and 1.717 | Reporter gene assay raw data, ERa ([2]; Log M -9.34008, first ERa data block (head r2)): 7.216 and 7.17 and 5.351 and 7.624 | Reporter gene assay raw data, ERa ([2]; Log M -9.34008, second ERa data block (head r34)): 6.164 and 5.9134 and 5.736 and 5.474 | Reporter gene assay raw data, ERa ([2]; Log M -9.81816, first ERa data block (head r2)): 1.823 and 1.931 and 1.019 and 2.136 | Reporter gene assay raw data, ERa ([2]; Log M -9.81816, second ERa data block (head r34)): 0.6247 and 1.953 and 0.3211 and 0.779 | Reporter gene assay raw data, ERa ([2]; Log M -10.2941, first ERa data block (head r2)): 1.733 and 1.446 and -0.6404 and -0.6096 | Reporter gene assay raw data, ERa ([2]; Log M -10.2941, second ERa data block (head r34)): -0.6765 and 0.406 and -1.087 and 0.2814 | Reporter gene assay raw data, ERa ([2]; Log M -10.7721, second ERa data block (head r34)): -1.593 and -1.3667 and -0.9474 and 0.114 | Reporter gene assay raw data, ERa ([2]; Log M -11.248, first ERa data block (head r2)): -1.205 and 0.7176 and 0.3903 and 0.3615 | ERa reporter gene assay raw data (response) ([2]; Log M -13, four replicate columns per compound): 0.8253 and -0.8253 and 1.478 and -1.478
SMILES: Oc1ccc(-n2nc3ccc(O)cc3c2Cl)cc1 [Compound K-101]
Reporter gene assay raw data, ERb ([1]; Log M -6): 120.988 and 116.157 and 143.98 and 147.219 | ERb reporter gene assay raw data (response) ([1]; Log M -6): 111.44 and 122.263 and 112.615 and 103.371 | Reporter gene assay raw data, ERb ([1]; Log M -6.47756): 114.841 and 114.867 and 137.295 and 151.298 | ERb reporter gene assay raw data (response) ([1]; Log M -6.47756): 99.9004 and 104.917 and 98.5023 and 107.756 | Reporter gene assay raw data, ERb ([1]; Log M -6.95468): 124.443 and 116.848 and 139.382 and 142.558 | ERb reporter gene assay raw data (response) ([1]; Log M -6.95468): 103.919 and 109.742 and 107.029 and 112.5 | Reporter gene assay raw data, ERb ([1]; Log M -7.4318): 110.594 and 113.713 and 119.524 and 142.929 | ERb reporter gene assay raw data (response) ([1]; Log M -7.4318): 106.837 and 108.962 and 105.441 and 101.954 | Reporter gene assay raw data, ERb ([1]; Log M -7.91009): 112.17 and 111.487 and 138.169 and 129.452 | ERb reporter gene assay raw data (response) ([1]; Log M -7.91009): 109.149 and 102.176 and 94.3567 and 106.552 | Reporter gene assay raw data, ERb ([1]; Log M -8.3851): 117.284 and 114.634 and 116.673 and 134.281 | ERb reporter gene assay raw data (response) ([1]; Log M -8.3851): 104.39 and 105.189 and 99.3517 and 108.832 | Reporter gene assay raw data, ERb ([1]; Log M -8.86328): 116.233 and 118.325 and 116.611 and 129.233 | ERb reporter gene assay raw data (response) ([1]; Log M -8.86328): 100.866 and 91.0385 and 99.5048 and 94.2764 | Reporter gene assay raw data, ERb ([1]; Log M -9.34008): 83.1588 and 87.5707 and 97.8302 and 99.1529 | ERb reporter gene assay raw data (response) ([1]; Log M -9.34008): 78.6235 and 76.3041 and 74.4798 and 84.9468 | Reporter gene assay raw data, ERb ([1]; Log M -9.81816): 46.3463 and 45.2097 and 53.3712 and 57.2512 | ERb reporter gene assay raw data (response) ([1]; Log M -9.81816): 51.4383 and 42.8216 and 46.1589 and 42.3832 | Reporter gene assay raw data, ERb ([1]; Log M -10.2941): 13.5511 and 13.5131 and 21.4772 and 19.6971 | ERb reporter gene assay raw data (response) ([1]; Log M -10.2941): 11.6805 and 12.8501 and 11.4455 and 13.5515 | ERb reporter gene assay raw data (response) ([1]; Log M -13): 0.5566 and -0.5566 and 0.8119 and -0.8119 | Reporter gene assay raw data, ERa ([2]; Log M -6, first ERa data block (head r2)): 104.545 and 98.5711 and 90.2001 and 86.8078 | Reporter gene assay raw data, ERa ([2]; Log M -6, second ERa data block (head r34)): 95.025 and 94.1762 and 88.9253 and 94.8982 | Reporter gene assay raw data, ERa ([2]; Log M -6.47756, first ERa data block (head r2)): 85.5888 and 84.856 and 83.9539 and 86.1821 | Reporter gene assay raw data, ERa ([2]; Log M -6.47756, second ERa data block (head r34)): 88.8265 and 82.9979 and 83.8682 and 89.3798 | Reporter gene assay raw data, ERa ([2]; Log M -6.95468, first ERa data block (head r2)): 74.2269 and 77.1348 and 79.6996 and 75.9439 | Reporter gene assay raw data, ERa ([2]; Log M -6.95468, second ERa data block (head r34)): 78.2124 and 79.7922 and 76.8721 and 73.4179 | Reporter gene assay raw data, ERa ([2]; Log M -7.4318, first ERa data block (head r2)): 58.4425 and 53.4049 and 54.6387 and 66.4913 | Reporter gene assay raw data, ERa ([2]; Log M -7.4318, second ERa data block (head r34)): 66.1364 and 63.6537 and 63.2155 and 63.5605 | Reporter gene assay raw data, ERa ([2]; Log M -7.91009, first ERa data block (head r2)): 54.5242 and 53.4131 and 49.5391 and 50.4679 | Reporter gene assay raw data, ERa ([2]; Log M -7.91009, second ERa data block (head r34)): 55.1309 and 61.6988 and 46.1658 and 50.4053 | Reporter gene assay raw data, ERa ([2]; Log M -8.3851, first ERa data block (head r2)): 36.2798 and 37.8765 and 41.0912 and 38.4728 | Reporter gene assay raw data, ERa ([2]; Log M -8.3851, second ERa data block (head r34)): 40.2636 and 45.8507 and 39.6541 and 35.9505 | Reporter gene assay raw data, ERa ([2]; Log M -8.86328, first ERa data block (head r2)): 20.0299 and 22.3737 and 21.1668 and 19.8353 | Reporter gene assay raw data, ERa ([2]; Log M -8.86328, second ERa data block (head r34)): 25.3166 and 18.7166 and 21.7026 and 19.2485 | Reporter gene assay raw data, ERa ([2]; Log M -10.7721, first ERa data block (head r2)): -0.886 and -0.01848 and -1.926 and -0.988 | Reporter gene assay raw data, ERa ([2]; Log M -11.248, second ERa data block (head r34)): -1.908 and -0.2669 and 0.1993 and -0.8382
